Laboratory results taken from PMC4280904 (Journal of Veterinary Pharmacology and Therapeutics, 2014).
Like-named read-outs stand apart in the source and are kept apart here. Marks after values point to notes of the source that are not given here.

Experiments:
[1] = system: pentylenetetrazole-induced convulsions; settings: dogs, ref Löscher et al., 2004, cited from earlier work
[2] = dogs, 5 mg/kg, at time of seizure induction; ref Löscher et al., 2004; cited from earlier work
CYP1A2 = CYP1A2 (Homo sapiens, UniProt P05177); assay: In vitro enzyme inhibition, recombinant CYP, fluorescent metabolites; type: in vitro ADME
CYP1A2, sequence (P05177 whole entry): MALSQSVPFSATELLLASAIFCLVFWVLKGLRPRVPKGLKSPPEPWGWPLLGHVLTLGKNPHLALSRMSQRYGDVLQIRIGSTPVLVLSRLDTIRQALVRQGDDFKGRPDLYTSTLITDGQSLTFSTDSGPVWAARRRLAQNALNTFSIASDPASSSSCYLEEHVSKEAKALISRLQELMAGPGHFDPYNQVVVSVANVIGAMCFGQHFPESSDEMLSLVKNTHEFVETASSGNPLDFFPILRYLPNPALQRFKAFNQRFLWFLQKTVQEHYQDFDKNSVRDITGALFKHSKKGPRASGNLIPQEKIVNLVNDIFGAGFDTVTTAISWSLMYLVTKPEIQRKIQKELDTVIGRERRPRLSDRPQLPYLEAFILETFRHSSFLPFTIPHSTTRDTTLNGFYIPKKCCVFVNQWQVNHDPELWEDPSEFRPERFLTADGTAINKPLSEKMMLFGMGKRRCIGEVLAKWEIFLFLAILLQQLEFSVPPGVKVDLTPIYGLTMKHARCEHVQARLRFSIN

Single dose and repeated = type: in vivo, beagle dogs; settings: 30 mg/kg tablets p.o.; for AUC(0-inf): AUCinf; for Vd/F: Vz/f
CYP2E1 = assay: In vivo enzyme induction: nitrophenol hydroxylase; parameters: species or system Wistar rats; settings: rats, 3–100 mg/kg p.o. once daily 7 days
[3] = ref Heinecke & Thiel, 2001; cited from earlier work
CYP2D6 = CYP2D6 (Homo sapiens, UniProt P10635); assay: In vitro enzyme inhibition, recombinant CYP, fluorescent metabolites; type: in vitro ADME
CYP2D6, sequence (P10635 whole entry): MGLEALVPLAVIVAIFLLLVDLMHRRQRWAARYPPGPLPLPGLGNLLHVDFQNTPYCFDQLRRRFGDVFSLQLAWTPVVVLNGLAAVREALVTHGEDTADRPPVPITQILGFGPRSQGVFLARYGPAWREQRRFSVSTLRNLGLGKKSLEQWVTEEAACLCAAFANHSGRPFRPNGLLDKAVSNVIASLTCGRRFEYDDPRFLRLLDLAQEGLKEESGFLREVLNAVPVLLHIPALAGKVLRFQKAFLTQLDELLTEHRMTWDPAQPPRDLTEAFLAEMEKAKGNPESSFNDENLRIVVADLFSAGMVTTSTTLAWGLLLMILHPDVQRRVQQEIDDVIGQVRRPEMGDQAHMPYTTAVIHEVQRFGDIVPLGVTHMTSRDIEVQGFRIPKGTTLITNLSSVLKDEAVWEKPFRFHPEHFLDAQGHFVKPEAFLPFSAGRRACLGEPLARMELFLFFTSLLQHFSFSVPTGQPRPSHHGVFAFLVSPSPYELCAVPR

[4] = both, beagle, dog, plasma, po, 30 mg/kg, Fasted
[5] = both, beagle, dog, plasma, po, 30 mg/kg, Fed
[6] = both, beagle, dog, plasma, po, 30 mg/kg, Day 0, fed
[7] = both, beagle, dog, plasma, po, 30 mg/kg, Day 5, fed
[8] = female, beagle, dog, plasma, po, 30 mg/kg, Females
[9] = male, beagle, dog, plasma, po, 30 mg/kg, Males
[10] = male, beagle, dog, plasma, po, 30 mg/kg, Males, fed

## O=C1N=C(N2CCOCC2)CN1c1ccc(Cl)cc1 [Imepitoin, 1-(4-chlorophenyl)-4-morpholino-imidazolin-2-one]
[1]; 5 mg/kg orally twice daily, 5 mg/kg
  elevation of threshold for pentylenetetrazole-induced convulsions: significant increase
[1]; 40 mg/kg twice daily, 40 mg/kg
  elevation of threshold for pentylenetetrazole-induced convulsions: much stronger elevation of threshold
[1]; 40 mg/kg twice daily, listed as imepitoin, 40 mg/kg
  elevation of threshold for pentylenetetrazole-induced convulsions: greatly enhanced the drug-induced effect
[1]; repeated administration for 28 days
  development of tolerance toward anticonvulsant activity: no development of tolerance
[2]
  peak plasma concentration: 1400 to 1700 ng/mL
CYP1A2
  IC50: > 100 µM
CYP1A2; recombinant human CYP1A2
  Inhibition of the specific cytochrome P450 isoform IC50, 1A2: did not influence
Single dose and repeated; beagle dogs
  maximal plasma concentrations: 14.9 to 17.2 µg/mL
Single dose and repeated; crossover fed vs fasted
  reduction of total AUC by co-administration with food: 30%
Single dose and repeated; fasted vs fed
  AUCinf greater for fasted dogs: 30%
Single dose and repeated; Day 5 (after 4 days BID)
  Tmax: 1.75 ^* h
Single dose and repeated; Fasted
  Terminal T½: 1.47 h
Single dose and repeated; Fed
  Terminal T½: 1.95 ^* h
Single dose and repeated; [4]
  AUC(0-inf): 90.3 µg·h/mL
  CL/F: 0.32 L/h/kg
  Cmax: 17.2 µg/mL
  Vd/F: 0.663 L/kg
Single dose and repeated; [5]
  AUC(0-inf): 69.2 µg·h/mL
  CL/F: 0.417 L/h/kg
  Cmax: 14.9 µg/mL
  Vd/F: 1.13 L/kg
Single dose and repeated; [6]
  CL/F: 0.325 L/h/kg
  Cmax: 15 µg/mL
  Vd/F: 0.892 L/kg
Single dose and repeated; [7]
  CL/F: 0.535 L/h/kg
  Cmax: 14.8 µg/mL
  Vd/F: 1.43 L/kg
Single dose and repeated; both, beagle, dog, plasma, po, 30 mg/kg, Terminal T½, Fed
  half-life: 2 h
Single dose and repeated; both, beagle, dog, plasma, po, 30 mg/kg, Tmax, Day 0, fed
  Tmax: 2.6 h
Single dose and repeated; both, beagle, dog, plasma, po, 30 mg/kg, Tmax, Day 5, fed
  Tmax: 1.44 h
Single dose and repeated; both, beagle, dog, plasma, po, 30 mg/kg, Tmax, Fasted
  Tmax: 2.17 h
Single dose and repeated; both, beagle, dog, plasma, po, 30 mg/kg, Tmax, Fed
  Tmax: 2.02 h
Single dose and repeated; [8]
  CL/F: 0.35 L/h/kg
  Cmax: 18.1 µg/mL
  Vd/F: 0.833 L/kg
Single dose and repeated; female, beagle, dog, plasma, po, 30 mg/kg, Tmax, Females
  Tmax: 1.89 h
Single dose and repeated; [9]
  AUC(0-inf): 75.5 µg·h/mL
  CL/F: 0.38 L/h/kg
  Cmax: 14.2 µg/mL
  Vd/F: 0.899 L/kg
Single dose and repeated; [10]
  CL/F: 0.44 L/h/kg
  Cmax: 12.5 µg/mL
  Vd/F: 1.19 L/kg
Single dose and repeated; male, beagle, dog, plasma, po, 30 mg/kg, Tmax, Males
  Tmax: 2.3 h
Single dose and repeated; male, beagle, dog, plasma, po, 30 mg/kg, Tmax, Males, fed
  Tmax: 2.44 h
CYP2E1
  induction of CYP2E1: did not induce
[3]
  lipophilicity: high lipophilicity
CYP2D6
  IC50: > 100 µM
CYP2D6; recombinant human CYP2D6
  Inhibition of the specific cytochrome P450 isoform IC50, 2D6: did not influence
